From patent US10617689B2, “Compositions, methods and uses for the treatment of diabetes and related conditions by controlling blood glucose level” (PHARNEXT, priority 2013, dated 2020)

Legend:
[1] = Results synthesis: relative performance value over all in vitro models; details: results of all in vitro models normalized and weighed; single drugs
Source text: Table 4 gathers results that were obtained in all previously described models (see points from 1.1 to 1.5 above). A value is attributed to each candidate compound depending on its effect in the different in vitro models compared to vehicle. Results are normalized and weighed in order to generate a relative performance value for each candidate compound. A high value reflects a high potential of the compound for the normalization of glucose level and thus a significant efficacy for controlling glucose levels and/or for the treatment of diabetes or related disorders. […]

[2] = system: beta pancreatic INS-1 cells; test: Prevention of beta cells apoptosis; type: cell-based; details: 1 h pre-incubation then 24 h in apoptotic condition, drugs tested alone
Protocol: Drugs of the invention have been tested for their efficiency in protecting beta cells from apoptosis. Such activity could be considered of use in type 1 diabetes as well as in type 2 diabetes.
The beta pancreatic INS-1 cells have been selected for this study. The cells are cultured in complete medium, RPMI 1640 10 mM glucose supplemented with 1 mM sodium pyruvate, 50 μM 2-mercaptoethanol, 2 mM glutamine, 10 mM HEPES, 100 IU/mL penicillin, 100 μg/mL streptomycin and 10% heat-inactivated foetal calf serum (FCS), as described by Asfari et al. (23). INS-1 cells are plated (4.5×10^4 cells/well) in 96-well poly ornithine coated plates and cultured at 37° C. in a humidified atmosphere of 95% air/5% CO2. The day after, cells are pre-incubated with the tested molecules for 1 h. Then, after a medium change, cells are cultured for 24 h in a medium containing the tested molecules and glucose 30 mM, myristic acid 0.05 mM, INF 25 ng/mL, TNF 25 ng/mL and IL 5 ng/mL.
The efficacy of compounds to prevent apoptosis is then evaluated by the highly specific apoptosis detection kit from Chemicon (Ref. APT225). This procedure is based on the detection of single-stranded DNA (ssDNA) which is a specific marker of apoptotic cells (24).
Results are expressed in optical density (OD) arbitrary unit and % of reduction of the apoptosis induced by apoptotic condition. […]

[3] = system: Mouse muscle cells H-2 Kb; test: Glucose uptake in mouse muscle cells; type: cell-based; details: H-2 Kb cells; short term; 0.1 μM; vs non-treated cells
Protocol: For differentiation in myoblast, cells are switched to non-permissive culture conditions (37° C. in a humidified atmosphere of 95% air/5% CO2; DMEM 5.5 mM D-glucose supplemented with 2% FCS, 10% horse serum, 2% glutamine, 1% chicken embryo extract, 100 U/mL penicillin, and 100 μg/mL streptomycin).
For long term effect evaluation, the day before glucose uptake assay, cells are incubated in DMEM 5.5 mM D-glucose supplemented with 10% horse serum, 2% SVF, 1% chicken embryo extract, 2% glutamine in the presence of the tested molecules for 16 h. […]
For short term effect evaluation, 4 hours prior to the glucose test, cells are washed and incubated in a serum-free medium (DMEM) containing 5.5 mM D-glucose and the tested molecules. Then glucose uptake is measured by incubation of the cells for 5-10 min with radiolabelled 2-deoxy-D-[1,2 ^3H] glucose in Krebs-Ringer HEPES buffer (KRBH; pH 7.4) 0.1% Bovine Serum Albumine (BSA) fraction V (Sigma_A-4503). […] Cell associated radioactivity is then counted and protein quantification is determined using the colorimetric Lowry method. Glucose uptake is estimated by measuring the radioactivity incorporated to the cells by a MicroBeta counter after adding 600 μL per well of scintillant (Optiphase SuperMix3).
Protein quantification is performed by a colorimetric assay derived from Lowry method. […]

[4] = system: human primary myotubes derived from a diabetic patient; test: Glucose uptake in human diabetic myotubes primary cultures; type: cell-based; details: for enhancement of glucose uptake: pre-treatment
Protocol: In order to have a model that is most reflective of the diabetic pathological conditions, efficiency of drugs in enhancing glucose uptake in diabetic myotubes was tested. […] The myotubes from a diabetic patient were grown on HAM's F10-based media (Sigma, ref […]) supplemented with 15% of fetal bovine serum, 1 mM glutamine. Myoblast were seeded at 380,000 cells/well in 12-well plates. After 2 days of proliferation, the cells were placed in reduced serum conditions (2% horse serum) to induce differentiation. The myotubes were used after 5 days of differentiation. Dulbecco's modified Eagle's medium (DMEM)-based media (Gibco, ref 31053-028) supplemented with 2% heat-inactivated Horse serum, 2% Glutamax (Gibco, 35050) and washed for glucose uptake assays. Compounds were dissolved in DMSO to reach desired final concentration prior use. The differentiated myotubes were treated for 24 h with the compositions of the invention, before the assay. Before the initiation of glucose uptake, the cells were deprived of serum and glucose. […] After adding the compounds at the desired concentrations, the cells were incubated at 37° C. during 2 h30. […] A subsequent glucose and serum deprivation was performed in FIBS buffer at 37° C. for 2 hours. […] The cells were rinsed twice with 1 mL of cold PBS. The lysis was performed in 500 μL of 0.05N NaOH for 20 minutes. The cells lysates were transferred into scintillation vials for the measurement of radioactivity with a MicroBeta counter.

[5] = system: TNF-α induced insulin resistant 3T3-L1 adipocytes; test: Glucose uptake in TNFα induced insulin resistant 3T3-L1 differentiated adipocytes; type: cell-based; details: for glucose uptake (in words): not shown
Protocol: 3T3L1 fibroblasts were maintained in DMEM 4.5 g/L glucose supplemented with 5% calf serum donor, 5% new born calf serum, 100 U/mL penicillin, and 100 μg/mL streptomycin at 37° C. under a 10% CO2 atmosphere. Cells were grown on 24 well plates at a density of 2560 cells/well in 0.5 mL of growth medium (DMEM 4.5 g/L glucose supplemented with 10% FCS, 100 U/mL penicillin, and 100 μg/mL streptomycin). […] Fresh medium were replaced after two days.
Glucose uptake was measured by quantification of incorporated radiolabelled glucose, after an incubation step with 2-deoxy-D[1,2^3H] glucose for 5 min. Glucose uptake was arrested by two washing steps in ice-cold PBS 1×. Then were solubilized in 0.1N NaOH for 30 min. Cell associated radioactivity have been then counted by using a MicroBeta counter after adding 600 μL per well of scintillant (Optiphase SuperMix3).
In parallel, protein quantification was determined by a colorimetric assay derived from LOWRY method. Results are expressed in nmol of glucose incorporated/5 min/mg of protein and in % of control or basal condition (100%).

[6] = mainly from Martindale (Edition 2011) and Nathan et al. (2009); cited from earlier work

| Structure (SMILES) | Relative performance value [1] | other results |
| --- | --- | --- |
| Cc1cccc(C)c1OCC(C)N (centres unmarked) [mexiletine] | 10 |  |
| C=CCNc1nc(NCC=C)nc(N2CCN(C(c3ccc(F)cc3)c3ccc(F)cc3)CC2)n1 [almitrine] | 38 |  |
| C[C@@H](NCCCc1cccc(C(F)(F)F)c1)c1cccc2ccccc12 [cinacalcet] | 32 |  |
| C1COC(NC(C2CC2)C2CC2)=N1 [rilmenidine] | 16 |  |
| O=C[C@@H](O)[C@@H](O)[C@H](O)[C@H](O)CO [D-mannose] | 18 |  |
| CC(=O)NCCCS(=O)(=O)O [acamprosate] | 15 | Percentage of apoptosis reduction [2]: 49%; enhancement of glucose uptake [3]: +45% |
| Cn1c(=O)c2c(ncn2CC(O)CO)n(C)c1=O (centres unmarked) [diprophylline] | 11 |  |
| CC(C(O)c1ccc(O)cc1)N1CCC(Cc2ccccc2)CC1 (centres unmarked) [ifenprodil] | 28 | glucose uptake (in words) ([4]; 0.1 μM and 1 μM): improvement; enhancement of glucose uptake ([4]; 0.01 μM): +48%; glucose uptake (in words) ([5]; 10 nM and 100 nM): improvement |
| Cc1c(Cl)cccc1Nc1ccccc1C(=O)O [tolfenamic acid] | 9 | enhancement of glucose uptake ([4]; 0.01 μM): +13%; enhancement of glucose uptake ([4]; 0.1 μM): +13%; enhancement of glucose uptake ([4]; 1 μM): +12%; glucose uptake (in words) ([5]; 100 nM and 1 μM): improvement; glucose uptake, drug used alone (in words) ([5]; alone at 3.3 nM): No significant effect |
| CN(C)CC[C@@H](c1ccc(Br)cc1)c1ccccn1 [dexbrompheniramine] | 21 |  |
| Nc1nc(N)c2nc(-c3ccccc3)c(N)nc2n1 [triamterene] | 18 | enhancement of glucose uptake ([4]; 0.01 μM): +13%; glucose uptake, drug used alone (in words) ([5]; alone at 3.3 nM): No significant effect |
| Cc1cccc(Nc2ccncc2S(=O)(=O)NC(=O)NC(C)C)c1 [torasemide] | 16 | enhancement of glucose uptake ([4]; 0.01 μM): +24%; enhancement of glucose uptake ([4]; 1 μM): +14%; glucose uptake, drug used alone (in words) ([5]; alone at 10 nM): No significant effect |
| CN/C(=N/CCSCc1nc[nH]c1C)NC#N [cimetidine] | 31 |  |
| CCN(CC)CCOCCOC(=O)C1(c2ccccc2)CCCC1 [carbetapentane] | 33 |  |
| CCN[C@@H](C)Cc1cccc(C(F)(F)F)c1 [dexfenfluramine] |  | Side Effects [6]: Cardiovascular |
| O=C1NCC2(CCN(CCc3ccccc3)CC2)O1 [fenspiride] |  | enhancement of glucose uptake ([4]; 0.01 μM): +34%; enhancement of glucose uptake ([4]; 0.1 μM): +30%; enhancement of glucose uptake ([4]; 1 μM): +27%; glucose uptake (in words) ([5]; 0.37 nM and 3.3 nM): improvement |
| CO[C@]12C[C@@H](COC(=O)c3cncc(Br)c3)CN(C)[C@@H]1Cc1cn(C)c3cccc2c13 [nicergoline] | 40 |  |
| C[C@@H]1CC(=O)NN=C1c1ccc(NN=C(C#N)C#N)cc1 [levosimendan] | 20 |  |
| CCN(CC)C(=O)N1CCN(C)CC1 [diethylcarbamazine] | 32 |  |
| COC1=C(OC)C(=O)C(CCCCCCCCCCO)=C(C)C1=O [idebenone] | 53 |  |
| CN1CCCC(n2nc(Cc3ccc(Cl)cc3)c3ccccc3c2=O)CC1 (centres unmarked) [azelastine] | 30 |  |
| NCC(CC(=O)O)c1ccc(Cl)cc1 (racemic) [baclofen] | 16 | glucose uptake, drug used alone (in words) ([5]; alone at 3.3 nM): No significant effect |
| c1cnc(N2CCN(Cc3ccc4c(c3)OCO4)CC2)nc1 [piribedil] | 24 |  |
| Cc1ccc(C(=O)C(C)CN2CCCCC2)cc1 (centres unmarked) [tolperisone] | 19 |  |
| CN(C)C(=N)N=C(N)N [metformin] |  | glucose uptake, drug used alone (in words) ([5]; metformin alone at 250 μM): No significant effect |
